From patent publication US20110070293A1, “Methods for the Preparation of Liposomes Comprising Docetaxel” (priority 2009, published 2011)
Read-outs that look alike come from different tables or passages of the source.

How the values were obtained:
[1] = Solubilization of docetaxel in fatty acid, fatty acid salt or oleate liposome media; type: physicochemical; conditions: for solubility: aqueous with cosolvent or surfactant or cyclodextrin
Method: (§1) Docetaxel (5 mg) was added to 31 μL of oleic acid and mixed using a VORTEX®. Ethanolamine (6 μL) was subsequently added and mixed using a VORTEX®. After mixing, the sample was dispersed in 963 μL of water for injection. Docetaxel was soluble and the formulation clear at 5 mg/mL. Docetaxel remained soluble, and the formulation was stable, upon dilution (1:10 in 2.5% glycerol) up to 24 hours as analyzed by a reverse phase high performance liquid chromatography method.
(§2) Docetaxel (5.0 mg) was added to 1 mL of 0.05 M sodium oleate and mixed using a VORTEX®. Docetaxel was soluble and the formulation clear at 5.0 mg/mL. Docetaxel remained soluble, and the formulation was stable, upon dilution (1:10 in 2.5% glycerol) up to 24 hours as analyzed by a reverse phase high performance liquid chromatography method.
as §2, with “(2” for “(5.0”, “1” for “0.05”, “caprylate” for “oleate”, “by” for “using”, “2” for “5.0”, “(1:2” for “(1:10 in”
as §2, with “(7.0” for “(5.0”, “1” for “0.05”, “linoleate” for “oleate”, “7.0” for “5.0”, “(1:10” for “(1:10 in”
(§3) Docetaxel (5 mg) was added to 1 mL of pre-made liposome containing 2 mM sodium oleate and 6% soy phosphatidyl choline, 10% trehalose, pH adjusted to 5-7 using Acetic acid, mixed using a VORTEX®, and microfluidized using a Microfluidizer with 10 passes at 15,000 psi. Five additional passes with the Microfluidizer at 15,000 psi were made to incorporate all 5 mg of the drug into 1 mL of pre-made liposome. Docetaxel was soluble and the formulation was transparent at 5 mg/mL. Docetaxel remained soluble, and the formulation was stable, upon dilution (1:10 in D5W) up to 48 hours as analyzed by a reverse phase high performance liquid chromatography method.
(§4) Hydrophobic or lipophilic compounds can be solubilized directly in sodium (or any ion) salt of fatty acid dissolved in an organic solvent. The organic solvent is subsequently removed using rotary evaporation, spray drying, or any other pharmaceutically acceptable processes. The drug-sodium salt of fatty acid mixture is subsequently dispersed in water, isotonic glycerol, or any pharmaceutically acceptable isotonic solution to achieve a desired concentration of the solubilized compound. For example, docetaxel (5 mg/mL) was dissolved in 100 mM sodium oleate in 100% ethanol. Ethanol was completely evaporated using rotary evaporation at 20° C. The docetaxel-sodium oleate was reconstituted with Water For Injection (“WFI”) or 2.5% glycerol to provide 5 mg/mL, 10 mg/mL, or 20 mg/mL concentration of docetaxel.
(§5) 50 μl of Docetaxel in ethanol (100 mg/mL) was added to 1 mL of pre-made liposome containing 2 mM sodium oleate and 6% soy phosphatidyl choline, 10% trehalose and pH adjusted to 5-7 using Acetic acid, mixed using a VORTEX® and microfluidized using a Microfluidizer with 10 passes at 15,000 psi. Docetaxel was soluble and the formulation is transparent at 5 mg/mL. Docetaxel remained soluble, and the formulation was stable, upon dilution (1:10 in D5W) up to 48 hours as analyzed by a reverse phase high performance liquid chromatography method. […] The lyophilized product is reconstituted with water for injection at 5 mg, 10, or 20 mg/mL concentration, essentially free of organic solvent.

[2] = Incorporation of docetaxel into liposome; type: physicochemical
Method: As provided herein, the sequence of the addition of docetaxel results in enhanced solubility of the docetaxel. The conventional method of incorporating a hydrophobic drug into liposome is by adding the drug to lipid before liposome preparation. See, e.g., Immordino, M. L. et al., Journal of Controlled Release, 2003, 91: 417-429. By the conventional process, the incorporation of the drug is only 0.3 to 0.7 mg/mL. When docetaxel is added after liposome preparation, the incorporation of docetaxel is increased from 0.3 mg/mL to 5 mg/mL, which is more than 10 fold increase in solubility of the drug in lipid alone.
In the conventional liposome preparation, the drug to lipid molar percent ratio is 4-6% with the incorporation of drug into liposome efficiency is only 56%. See Immordino, M. L. et al., Journal of Controlled Release, 2003, 91: 417-429.

[3] = Stability of docetaxel formulations upon dilution (reverse phase HPLC) and after lyophilization; type: physicochemical; conditions: for time docetaxel remained soluble and formulation stable upon dilution: RP-HPLC
Method: as §1, §2
as §2, with “(2” for “(5.0”, “1” for “0.05”, “caprylate” for “oleate”, “by” for “using”, “2” for “5.0”, “(1:2” for “(1:10 in”
as §2, with “(7.0” for “(5.0”, “1” for “0.05”, “linoleate” for “oleate”, “7.0” for “5.0”, “(1:10” for “(1:10 in”
as §3, §4, §5

[4] = cited from earlier work
[5] = docetaxel added to pre-made liposome
[6] = conventional liposome preparation (Immordino et al.)

- solubility ([1]; 0.05 M sodium oleate solution, Example 7: 0.05 M sodium oleate, read-out: concentration at which docetaxel was soluble and formulation clear): 5000 µg/mL
- solubility ([1]; 1 M sodium caprylate solution, Example 8: 1 M sodium caprylate, read-out: concentration at which docetaxel was soluble and formulation clear): 2000 µg/mL
- solubility ([1]; 1 M sodium linoleate solution, Example 9: 1 M sodium linoleate, read-out: concentration at which docetaxel was soluble and formulation clear): 7000 µg/mL
- concentration at which docetaxel was soluble and formulation transparent ([1]; Example 12: docetaxel in ethanol added to pre-made liposome, 2 mM sodium oleate, 6% soy phosphatidyl choline, 10% trehalose, pH 5-7): 5000 µg/mL
- solubility ([1]; Example 10: solid docetaxel in pre-made liposome, 2 mM sodium oleate, 6% soy phosphatidyl choline, 10% trehalose, pH 5-7, read-out: concentration at which docetaxel was soluble and formulation transparent): 5000 µg/mL
- solubility ([1]; oleic acid / ethanolamine dispersion in water for injection, Example 6: oleic acid, ethanolamine, water for injection, read-out: concentration at which docetaxel was soluble and formulation clear): 5000 µg/mL
- incorporation of docetaxel into liposome ([2]; docetaxel added after liposome preparation): 5 mg/mL
- increase in solubility of the drug versus lipid alone ([2]; docetaxel added after liposome preparation vs 0.3 mg/mL): more than 10 fold
- drug to lipid molar ratio [2, 5]: 8%
- efficiency of incorporation of docetaxel into liposome [2, 5]: about 100%
- time docetaxel remained soluble and formulation stable upon dilution ([3]; Example 6: oleic acid/ethanolamine, dilution 1:10 in 2.5% glycerol): up to 24 hours
- time docetaxel remained soluble and formulation stable upon dilution ([3]; Example 7: 0.05 M sodium oleate, dilution 1:10 in 2.5% glycerol): up to 24 hours
- time docetaxel remained soluble and formulation stable upon dilution ([3]; Example 8: 1 M sodium caprylate, dilution 1:2 2.5% glycerol): up to 24 hours
- time docetaxel remained soluble and formulation stable upon dilution ([3]; Example 9: 1 M sodium linoleate, dilution 1:10 2.5% glycerol): up to 24 hours
- time docetaxel remained soluble and formulation stable upon dilution ([3]; Example 10: oleate liposome, dilution 1:10 in D5W): up to 48 hours
- time docetaxel remained soluble and formulation stable upon dilution ([3]; Example 12: oleate liposome, dilution 1:10 in D5W): up to 48 hours
SMILES: CC(=O)O[C@@]12CO[C@@H]1C[C@H](O)[C@@]1(C)C(=O)[C@H](O)C3=C(C)[C@@H](OC(=O)[C@H](O)[C@@H](NC(=O)OC(C)(C)C)c4ccccc4)C[C@@](O)([C@@H](OC(=O)c4ccccc4)[C@H]21)C3(C)C [Docetaxel]
- time reconstituted docetaxel remained in solution ([3]; Example 11: docetaxel-sodium oleate reconstituted with WFI or 2.5% glycerol): 2 hours, 4 hours, 6 hours, 8 hours or 24 hours
- drug to lipid molar percent ratio [4, 6]: 4-6%
- efficiency of incorporation of drug into liposome [4, 6]: 56%
- incorporation of the drug into liposome ([4]; conventional process: drug added to lipid before liposome preparation (Immordino et al.)): 0.3 to 0.7 mg/mL
